# Tests used:
# [1] = tested on: 6C3HED lymphosarcoma; assay: Antitumor activity in mice bearing allograft 6C3HED lymphosarcoma, oral dosing; format: in vivo, C3H mice; conditions: 6C3HED tumor, daily for 8 days; for Percent Inhibition: inhibition of tumor growth vs control; for Toxic/Total: mice which died / total animals in group
# Excerpt: Another tumor model employed C3H mice bearing the widely used allograft 6C3HED lymphosarcoma, also known as the Gardner lymphosarcoma (GLS). The 6C3HED lymphosarcoma was obtained from the Division of Cancer Treatment, National Cancer Institute, Tumor Bank, maintained at E. G. and G. Mason Research (Worcester, Massachusetts).
# (§1) First passage tumors were stored in liquid nitrogen, using standard techniques. The transplanted tumor was reestablished from the Tumor Bank every six months or as needed. The tumor was maintained by serial passage twice weekly in the host mice.
# (§2) In the procedures utilized here, the tumor was removed from passage animals and minced into cubic fragments having 1 to 3 mm edges using sterile techniques. Tumor pieces were checked for sterility using both Antibiotic Medium 1 and Brain Heart Infusion (Difco, Detroit, Michigan). The xenograft tumor pieces were implanted into the recipient CD1 Nu/Nu mice subcutaneously in an axillary site by trochar. The allograft 6C3HED tumor pieces were implanted into the recipient C3H mice in an analogous fashion.
# (§3) Drug therapy on the appropriate schedule was initiated seven days after tumor implantation for the mice bearing the xenograft tumors, one day after implantation for the mice bearing the 6C3HED lymphosarcoma. The compound being tested was mixed with 2.5% Emulphor EL620 from GAF Corporation (1:40 dilution in 0.9% saline). The total dosage volume for each administration was 0.5 ml. All animals were weighed at the beginning and end of administration of the subject compounds. Food and water were provided ad libitum.
# (§4) Each control group and each dosage level of the treated groups consisted of 9 or 10 mice selected at random from the pool of implanted animals. The formulations were administered orally by gavage with the use of an 18-gauge needle. Compounds were dosed daily for 10 days for the studies using the human tumor xenografts and 8 days for the studies using the allograft.
# (§5) The tumor was measured five days after treatment ended with two dimensional measurements (width and length) of the tumor taken using digital electronic calipers interfaced to a microcomputer. J.F. Worzalla, et al., Investigational New Drugs, 8:241-251 (1990). Tumor weights were calculated from these measurements using the following formula: Tumor weight (mg) =[…] [formula] At least one control group of an equal number of mice was treated with the same volume of 2.5% Emulphor only. The percent inhibition is determined by subtracting the ratio of the mean tumor size of the test group relative to the control group from one and multiplying the result by 100.
# (§6) The results of several experiments in mice bearing the VRC5 human colon adenocarcinomas, and the 6C3HED lymphosarcoma when the Formula I compounds were administered orally are provided in Table I. In the table, Column 1 refers to the example number of the compound tested; Column 2 describes the particular human tumor xenograft or mouse allograft being studied; Column 3 gives the dosage level of the compound of Formula I in milligrams per kilogram of body weight; Column 4 describes the percent inhibition of tumor growth; and Column 5 tallies the number of mice which died during the course of the experiment relative to the total number of animals in the group.
# [2] = tested on: VRC5 human colon adenocarcinomas; assay: Antitumor activity in mice bearing human colon xenograft VRC5, oral dosing; format: in vivo, CD1 Nu/Nu mice; conditions: VRC5 tumor, daily for 10 days; for Percent Inhibition: inhibition of tumor growth vs control; for Toxic/Total: mice which died / total animals in group
# Excerpt: One of the tumor models used for showing the anti-neoplastic activity of the sulfonylureas of this invention was the human colon xenograft VRC5. J.A. Houghton and D.M. Taylor, British Journal of Cancer, 37:213-223 (1978). This tumor was obtained from St. Jude's Children's Research Hospital and has been widely used as a human tumor model.
# as §1, §2, §3, §4, §5, §6
compound,measurement,setting,value
"O=C(Nc1ccc(Cl)cc1)NS(=O)(=O)c1ccc2c(c1)CCN2 [Example 1, N-[[(4-chlorophenyl)amino]carbonyl]-2,3-dihydro-1H-indole-5-sulfonamide]",Percent Inhibition,[1]; 280 mg/kg orally by gavage,44%
same,Toxic/Total,[1]; 280 mg/kg orally,0/9
"O=C(Nc1ccc(Cl)c(Cl)c1)NS(=O)(=O)c1ccc2c(c1)CCN2 [Example 2, N-[[(3,4-dichlorophenyl)amino]carbonyl]-2,3-dihydro-1H-indole-5-sulfonamide]",Percent Inhibition,[1]; 450 mg/kg orally by gavage,100%
same,Toxic/Total,[1]; 450 mg/kg orally,0/10
same,Percent Inhibition,[1]; 900 mg/kg orally by gavage,100%
same,Toxic/Total,[1]; 900 mg/kg orally,1/10
same,Percent Inhibition,[2]; 20 mg/kg orally by gavage,18%
same,Toxic/Total,[2]; 20 mg/kg orally,0/9
same,Percent Inhibition,[2]; 40 mg/kg orally by gavage,56%
same,Toxic/Total,[2]; 40 mg/kg orally,0/9
"N-[[(3,4-dichlorophenyl)amino]carbonyl]-1-methyl-1H-indole-5-sulfonamide [Example 3]",Percent Inhibition,[2]; 20 mg/kg orally by gavage,81%
same,Toxic/Total,[2]; 20 mg/kg orally,1/9
same,Percent Inhibition,[2]; 40 mg/kg orally by gavage,95%
same,Toxic/Total,[2]; 40 mg/kg orally,1/10
same,Percent Inhibition,[2]; 80 mg/kg orally by gavage,100%
same,Toxic/Total,[2]; 80 mg/kg orally,0/10

# Reference: patent publication EP0614887B1, “Indole-sulfonamides as antitumor agents” (ELI LILLY AND COMPANY, priority 1993, dated 1994)
